PMC3250956, “Functional characterization and analgesic effects of mixed cannabinoid receptor/T-type channel ligands” (Molecular Pain, 2011)

Experiments:
human 5-HT2A = molecular target: T1, human 5-HT2A (Homo sapiens, UniProt P28223); test: Primary radioligand competitive binding assay, [3H]ketanserin; conditions: ligand 10 μM, HEK293 cells
T1 construct: expressed in transfected cells; host or cells: HEK293 (Flp-In system, pcDNA5.0FRT)
Protocol: (§1) HEK293 cells and CHO cells were used in the radioligand binding assay while tsA-201 cells were used in the electrophysiological study. Human CB2, human 5-HT2A, rat 5-HT2C used in the binding studies were cloned into pcDNA5.0FRT and cell lines were made using the FlpIn system from Invitrogen. tsA-201 cell culture and transient calcium channel transfection were performed as described previously. In brief, tsA-201 cells were transfected using the calcium phosphate method. Cav3.1, 3.2 and 3.3 α1 subunits were transfected individually with yellow fluorescent protein as a transfection marker.
(§2) Radioligand binding data were obtained using National Institute of Mental Health's Psychoactive Drug Screening Program (NIMH/PDSP) using the same protocol described for CB1 and CB2 binding experiments. Transfected HEK293 (human 5-HT2A or rat 5-HT2C) cells were used. The radioligands were [^3H]ketanserin (0.5 nM) and [^3H]mesulergine (0.5 nM) for respectively 5-HT2A and 5-HT2C experiments. Non-specific binding was determined in the presence of 10 μM chlorpromazine for both 5-HT2A and 5-HT2C binding experiments. Cells were harvested and homogenized in 50 mM Tris HCl, 10 mM MgCl2, 0.1 mM EDTA, pH 7.4. Incubation of radioreceptor binding assay mixtures was 1.5 hours at room temperature in the dark.

rat 5-HT2C = molecular target: T2, rat 5-HT2C (Rattus norvegicus, UniProt P08909); test: Primary radioligand competitive binding assay, [3H]mesulergine; conditions: ligand 10 μM, HEK293 cells
T2 construct: expressed in transfected cells; host or cells: HEK293 (Flp-In system, pcDNA5.0FRT)
T2 sequence (P08909 33-460): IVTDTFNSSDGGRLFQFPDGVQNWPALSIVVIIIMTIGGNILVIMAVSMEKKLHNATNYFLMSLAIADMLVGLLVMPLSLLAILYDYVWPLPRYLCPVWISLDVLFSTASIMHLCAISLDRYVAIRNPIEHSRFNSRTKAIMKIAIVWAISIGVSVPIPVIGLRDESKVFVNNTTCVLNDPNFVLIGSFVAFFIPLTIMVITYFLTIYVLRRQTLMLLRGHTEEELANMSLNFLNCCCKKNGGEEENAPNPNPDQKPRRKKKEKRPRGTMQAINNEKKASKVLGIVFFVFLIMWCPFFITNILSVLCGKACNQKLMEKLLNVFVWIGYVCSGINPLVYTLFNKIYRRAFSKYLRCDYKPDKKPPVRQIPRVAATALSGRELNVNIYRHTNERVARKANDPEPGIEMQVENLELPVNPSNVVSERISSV
Protocol: as §1, §2

Rat CB1 = molecular target: T3, Rat CB1 (Rattus norvegicus, UniProt P20272); test: Radioligand competitive binding, [3H]CP55940, rat brain homogenate; conditions: for Rat CB1 (%) primary radioligand competitive binding: ligand 10 μM, rat brain homogenates; for Ki: NA: not active at 1 μM, read-out: Mean Ki Rat CB1
T3 construct: membrane fractions prepared from rat brain homogenate expressing CB1 receptor; from tissue; host or cells: rat brain homogenate
T3 sequence (P20272 whole entry): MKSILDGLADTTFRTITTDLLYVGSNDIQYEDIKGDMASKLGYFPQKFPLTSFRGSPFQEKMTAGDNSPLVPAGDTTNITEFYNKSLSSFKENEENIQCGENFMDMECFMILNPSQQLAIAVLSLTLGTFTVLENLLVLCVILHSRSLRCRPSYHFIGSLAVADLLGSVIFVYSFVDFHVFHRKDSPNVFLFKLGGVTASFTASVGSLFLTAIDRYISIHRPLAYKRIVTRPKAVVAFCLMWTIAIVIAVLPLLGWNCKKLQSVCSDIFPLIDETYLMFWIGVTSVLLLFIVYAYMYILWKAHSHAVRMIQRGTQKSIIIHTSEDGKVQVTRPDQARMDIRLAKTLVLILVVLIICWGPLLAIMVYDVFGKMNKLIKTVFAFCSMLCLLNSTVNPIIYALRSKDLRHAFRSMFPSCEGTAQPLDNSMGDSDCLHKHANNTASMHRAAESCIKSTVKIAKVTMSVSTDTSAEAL
Protocol: (§3) CB1 and CB2 radioligand binding data were obtained using National Institute of Mental Health (NIMH) Psychoactive Drug Screening Program (PDSP) resources as described earlier. Compounds were screened in a competitive binding experiment using, respectively, membrane fractions prepared from rat brain homogenate expressing CB1 receptor and HEK293 cells expressing the human CB2 receptor. Experiments were conducted at a range of different concentrations and in duplicate. The competition binding experiment for CB1 and CB2 was performed in 96 well plates containing Standard Binding Buffer (50 mM Tris HCl, 1 mM EDTA, 3 mM MgCl2, 5 mg/ml fatty acid-free BSA, pH 7.4). The radioligand was [^3H]CP55940, and the reference compound was CP55940. A solution of the compound to be tested was prepared as a 1 mg/ml stock in DMSO and then diluted in Standard Binding Buffer by serial dilution. Radioligand was diluted to five times the assay concentration in Standard Binding Buffer. Aliquots (50 μl) of radioligand were dispensed into the wells of a 96-well plate containing 100 μl of Standard Binding Buffer. Then, duplicate 50-μl aliquots of the test and reference compound dilutions were added. Finally, crude membrane fractions of cells were resuspended in 3 ml of chilled Standard Binding Buffer and homogenized by several passages through a 26 gauge needle, then 50 μl were dispensed into each well. The 250-μl reactions were incubated at room temperature for 1.5 hours, and then harvested by rapid filtration onto Whatman GF/B glass fiber filters pre-soaked with 0.3% polyethyleneimine using a 96-well Brandel harverster. Four rapid 500-μl washes were performed. Filters were placed in 6-ml scintillation tubes and allowed to dry overnight. Bound radioactivity was harvested onto 0.3% polyethyleneimine-treated, 96-well filter mats using a 96-well Filtermate harvester. The filter mats were dried, then scintillant was melted onto the filters and the radioactivity retained on the filters counted in a Microbeta scintillation counter. Raw data (dpm) representing total radioligand binding (i.e., specific + non-specific binding) were plotted as a function of the logarithm of the molar concentration of the competitor (i.e., test or reference compound). Non-linear regression of the normalized (i.e., percent radioligand binding compared to that observed in the absence of test or reference compound) raw data was performed in Prism 4.0 (GraphPad Software) using the built-in three parameter logistic model describing ligand competition binding to radioligand-labeled sites: y = bottom + [(top-bottom)/(1 + 10 × -logIC50)] where bottom equals the residual radioligand binding measured in the presence of 10 μM reference compound (i.e., non-specific binding) and top equals the total radioligand binding observed in the absence of competitor. The log IC50 (i.e., the log of the ligand concentration that reduces radioligand binding by 50%) is thus estimated from the data and used to obtain the Ki by applying the Cheng-Prusoff approximation: Ki = IC50/(1 + [ligand]/KD) where [ligand] equals the assay radioligand concentration and KD equals the affinity constant of the radioligand for the target receptor.

[1] = test system: T-type calcium channels (Cav3.1, Cav3.2, Cav3.3); test: Whole-cell patch-clamp screen on recombinant T-type calcium channels in tsA-201 cells; type: cell-based, human; conditions: 10 μM; held at -100 mV, pulse to -20 mV; barium current; three Cav3 isoforms
Description: Studies have shown that several endocannabinoids and phytocannabinoids have direct inhibitory actions on T-type voltage-gated calcium channels. To determine whether the NMP compounds produced a similar effect, we characterized their actions on transiently expressed T-type calcium channels via whole-cell patch-clamp recordings. Cells were held at -100 mV and barium current was evoked by a depolarizing pulse to -20 mV.
HEK293 cells and CHO cells were used in the radioligand binding assay while tsA-201 cells were used in the electrophysiological study. Human CB2, human 5-HT2A, rat 5-HT2C used in the binding studies were cloned into pcDNA5.0FRT and cell lines were made using the FlpIn system from Invitrogen. tsA-201 cell culture and transient calcium channel transfection were performed as described previously. In brief, tsA-201 cells were transfected using the calcium phosphate method. […]
Whole-cell currents were recorded from tsa-201 cells 2-4 days after transfection. […] Currents were elicited from a holding potential of -100 mV and were measured by conventional whole-cell patch clamp using an Axopatch 200B amplifier in combination with Clampex 9.2 software (Axon Instruments, Foster City, CA). […] Electrophysiological data were analyzed using Clampfit 9.2 (Axon Instruments, Foster City, CA) and GraphPad Prism 5 software (GraphPad Software Inc., San Diego, CA). […]

Human CB2 [2] = molecular target: T4, Human CB2 (Homo sapiens, UniProt P34972); test: Radioligand competitive binding, [3H]CP55940, HEK293 cells; parameters: expressed in transfected cells; conditions: for Ki: NA: not active at 1 μM, read-out: Mean Ki Human CB2; for Human CB2 (%) primary radioligand competitive binding: ligand 10 μM, HEK293 cells
T4 sequence (P34972 whole entry): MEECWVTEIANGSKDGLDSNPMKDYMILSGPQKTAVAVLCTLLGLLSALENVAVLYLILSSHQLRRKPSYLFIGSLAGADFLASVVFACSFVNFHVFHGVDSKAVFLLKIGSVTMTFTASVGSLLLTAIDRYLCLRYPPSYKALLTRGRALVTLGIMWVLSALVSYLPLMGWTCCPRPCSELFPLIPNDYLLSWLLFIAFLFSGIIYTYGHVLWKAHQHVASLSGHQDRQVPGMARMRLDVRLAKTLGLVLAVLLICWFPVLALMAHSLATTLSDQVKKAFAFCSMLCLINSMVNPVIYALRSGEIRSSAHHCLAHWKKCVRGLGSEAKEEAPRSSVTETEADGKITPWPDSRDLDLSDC
Protocol: as §1, §3

Human CB1 = Human CB1 (Homo sapiens, UniProt P21554); test: GTPγ[35S] functional assay, CHO cell membrane extracts; conditions: NA: not active at 1 μM
Chain of Human CB1 (P21554 whole entry): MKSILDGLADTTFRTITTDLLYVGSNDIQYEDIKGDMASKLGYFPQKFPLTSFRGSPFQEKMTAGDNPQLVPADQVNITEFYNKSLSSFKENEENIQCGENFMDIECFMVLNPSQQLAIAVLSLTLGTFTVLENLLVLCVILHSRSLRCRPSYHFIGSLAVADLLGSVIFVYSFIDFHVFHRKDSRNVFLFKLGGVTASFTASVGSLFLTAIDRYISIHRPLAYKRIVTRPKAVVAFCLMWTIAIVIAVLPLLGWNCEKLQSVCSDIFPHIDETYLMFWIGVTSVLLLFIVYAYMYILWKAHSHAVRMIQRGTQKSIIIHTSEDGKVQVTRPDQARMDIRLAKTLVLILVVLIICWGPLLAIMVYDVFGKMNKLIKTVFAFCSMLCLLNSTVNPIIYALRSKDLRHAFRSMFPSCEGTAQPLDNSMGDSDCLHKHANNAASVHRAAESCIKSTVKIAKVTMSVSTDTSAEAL

Human CB2 [3] = molecular target: T4, Human CB2; test: as above; type: biochemical; parameters: expressed in transfected cells; host or cells: CHO cells (membrane extracts)

T1 sequence (P28223 whole entry): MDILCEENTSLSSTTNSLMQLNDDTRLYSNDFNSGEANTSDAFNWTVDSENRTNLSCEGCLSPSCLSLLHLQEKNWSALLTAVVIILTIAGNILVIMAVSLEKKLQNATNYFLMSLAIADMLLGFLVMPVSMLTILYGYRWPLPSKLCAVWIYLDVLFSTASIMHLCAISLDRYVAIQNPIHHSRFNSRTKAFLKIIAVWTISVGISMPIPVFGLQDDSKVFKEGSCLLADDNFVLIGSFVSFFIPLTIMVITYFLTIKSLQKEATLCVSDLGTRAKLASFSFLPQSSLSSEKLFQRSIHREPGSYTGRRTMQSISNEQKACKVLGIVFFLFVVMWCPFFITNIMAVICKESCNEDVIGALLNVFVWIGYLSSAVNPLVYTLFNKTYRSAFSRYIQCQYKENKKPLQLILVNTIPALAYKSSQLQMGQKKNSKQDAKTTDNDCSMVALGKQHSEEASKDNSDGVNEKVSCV

CCCCCn1c2ccccc2c2cc(C(=O)NCCc3ccc(Cl)cc3)ccc21 [NMP-139]
Human 5-HT2A (%) primary radioligand competitive binding (human 5-HT2A): 7.7%
Rat 5-HT2C (%) primary radioligand competitive binding (rat 5-HT2C): -7.8%
Rat CB1 (%) primary radioligand competitive binding (Rat CB1): 46.3%
inhibition of T-type current [1]: < 20%
Ki (Human CB2 [2]): 3590 ± 424 nM

CCCCCn1c2c(c3ccccc31)C[C@@H](C(=O)N1CCCCC1)NC2 [NMP-141]
Human 5-HT2A (%) primary radioligand competitive binding (human 5-HT2A): 11.9%
Rat 5-HT2C (%) primary radioligand competitive binding (rat 5-HT2C): -8.4%
Ki (Rat CB1): 906 ± 211 nM
Rat CB1 (%) primary radioligand competitive binding (Rat CB1): 88.6%
Ki (Human CB2 [2]): 481 ± 52.9 nM
Human CB2 (%) primary radioligand competitive binding (Human CB2 [2]): 88.7%
GTPγ[35S] functional assays Human CB1 EC50 (Human CB1): did not show any agonistic or antagonistic activities
EC50 (Human CB2 [3]; read-out: GTPγ[35S] functional assays Human CB2 EC50): 112 ± 3.3 nM
Emax (Human CB2 [3]; read-out: GTPγ[35S] functional assays Human CB2 Emax): 51.9%

CCCCCn1c2c(c3ccccc31)C[C@H](C(=O)N1CCCCC1)NC2 [NMP-140]
Human 5-HT2A (%) primary radioligand competitive binding (human 5-HT2A): 11.2%
Rat 5-HT2C (%) primary radioligand competitive binding (rat 5-HT2C): -4.2%
Ki (Rat CB1): 1250 ± 290 nM
Rat CB1 (%) primary radioligand competitive binding (Rat CB1): 79.3%
Ki (Human CB2 [2]): 2870 ± 515 nM
Human CB2 (%) primary radioligand competitive binding (Human CB2 [2]): 71.1%
